Experimental data published in patent US9920030B2 (priority 2006, dated 2018).
Where two headings read alike, the source gives them in different places.

Assays:
Format in all cases: in vivo
[1] = tested on: Plasmopara vilicola (the causal agent of grape downy mildew); assay: Test A: grape downy mildew, test suspension sprayed on grape seedlings after inoculation, visual disease rating
Summary of the method: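 Compounds dissolved in acetone (3% of final volume), suspended in 50/50 acetone/water with 250 ppm Trem 014; 200 ppm to run-off equals 500 g/ha. Seedlings inoculated, held saturated at 20 °C 24 h, then sprayed; 5 days at 20 °C, 24 h saturated, then visual rating, 0–100% control versus untreated.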

[2] = tested on: Phytophthora infestans (the causal agent of tomato late blight); assay: whole plant or invertebrate
[3] = tested on: Phytophthora infestans (the causal agent of tomato late blight); assay: whole plant or invertebrate; remark: listed apart in the source
[4] = compounds without asterisk (application rate not given), 100 = 100% disease control, 0 = no control relative to the controls
[5] = Plasmopara, 144 h, * tested at 40 ppm, read-out: Percent Disease Control, Test A
[6] = Phytophthora infestans, 144 h, read-out: Percent Disease Control, Test B
[7] = Phytophthora infestans, 96 h, read-out: Percent Disease Control, Test C

Structure (SMILES)	Percent Disease Control, Test A ([1]; * tested at 40 ppm) [%]	Percent Disease Control, Test B ([2]; * tested at 40 ppm) [%]	Percent Disease Control, Test C ([3]; * tested at 40 ppm) [%]	Percent Disease Control, Test A [1, 4] [%]	Percent Disease Control, Test B [2, 4] [%]	Percent Disease Control, Test C [3, 4] [%]	further results
CC(=O)Oc1ccc(C2CC(c3csc(C4CCN(C(=O)Cn5nc(C(F)(F)F)cc5C)CC4)n3)=NO2)cc1 (stereo not shown) [Compound 113]	99	100	99	–	–	–	–
Cc1cc(C(F)(F)F)nn1CC(=O)N1CCC(c2nc(C3=NOC(c4ccccc4C(F)(F)F)C3)cs2)CC1 (stereo not shown) [Compound 114]	100	100	99	–	–	–	–
Cc1cc(C(F)(F)F)nn1CC(=O)N1CCC(c2nc(C3=NOC(c4cccc(C(F)(F)F)c4)C3)cs2)CC1 (stereo not shown) [Compound 115]	100	100	99	–	–	–	–
COC(=O)CC1CC(c2csc(C3CCN(C(=O)Cn4nc(C(F)(F)F)cc4C)CC3)n2)=NO1 (stereo not shown) [Compound 116]	–	–	–	46	100	79	–
Cc1cc(C(F)(F)F)nn1CC(=O)N1CCC(c2nc(C3=NOC(S(=O)(=O)c4ccccc4)C3)cs2)CC1 (stereo not shown) [Compound 117]	93	100	99	–	–	–	–
Cc1cc(C(F)(F)F)nn1CC(=O)N1CCC(c2nc(C3=NC[C@@H](c4ccccc4)N3C)cs2)CC1 [Compound 118]	0	87	16	–	–	–	–
Cc1cc(C(F)(F)F)nn1CC(=O)N1CCC(c2nc(C3=N[C@@H](c4ccccc4)[C@@H](c4ccccc4)N3)cs2)CC1 [Compound 119]	–	–	–	0	82	0	–
Cc1cc(C(F)(F)F)nn1CC(=O)N1CCC(c2nc(-c3ccc(Cl)cc3)cs2)CC1 [Compound 120]	–	–	–	99	88	0	–
Cc1cc(C(F)(F)F)nn1CC(=O)N1CCC(c2nc(-c3ccccc3Cl)cs2)CC1 [Compound 121]	–	–	–	83	47	0	–
Cc1cc(C(F)(F)F)nn1CC(=O)N1CCC(c2nc(-c3ccc(C(F)(F)F)cc3)cs2)CC1 [Compound 122]	–	–	–	99	46	0	–
Cc1cc(C(F)(F)F)nn1CC(=O)N1CCC(c2nc(-c3cccc(Cl)c3)cs2)CC1 [Compound 123]	–	–	–	95	68	0	–
Cc1cc(C(F)(F)F)nn1CC(=O)N1CCC(c2nc(-c3cccnc3)cs2)CC1 [Compound 124]	–	–	–	8	98	26	–
Cc1cc(C(F)(F)F)nn1CC(=O)N1CCC(c2nc(C3=NOC(c4ccc(O)c(O)c4)C3)cs2)CC1 (stereo not shown) [Compound 125]	–	–	–	31	53	0	–
O=C(Cn1nc(C(F)(F)F)cc1Br)N1CCC(c2nc(C3=NOC(c4ccccc4)C3)cs2)CC1 (stereo not shown) [Compound 126, 2-[5-bromo-3-(trifluoromethyl)-1H-pyrazol-1-yl]-1-[4-[4-(4,5-dihydro-5-phenyl-3-isoxazoly)-2-thiazolyl]-1-piperidinyl]ethanone]	–	–	–	100	100	99	Percent Disease Control, Test A ([1]; compounds without asterisk (application rate not given), 100 = 100% disease control, 0 = no control relative to the controls, listed as 11): 99%
Cc1cc(C(F)(F)F)n(CC(=O)N2CCC(c3nc(C4=NOC(c5ccccc5)C4)cs3)CC2)n1 (stereo not shown) [Compound 128, 1-[4-[4-(4,5-dihydro-5-phenyl-3-isoxazolyl)-2-thiazolyl]-1-piperidinyl]-2-[3-methyl-5-(trifluoromethyl)-1H-pyrazol-1-yl]ethanone]	–	–	–	–	–	–	pest or weed control at 40 ppm [1, 5]: 100%; pest or weed control at 40 ppm [2, 6]: 100%; pest or weed control at 40 ppm [3, 7]: 99%
Cc1cc(C(F)(F)F)nn1CC(=S)N1CCC(c2nc(C3=NOC(c4ccccc4)C3)cs2)CC1 (stereo not shown) [Compound 130, 1-[4-[4-(4,5-dihydro-5-phenyl-3-isoxazolyl)-2-thiazolyl]-1-piperidinyl]-2-[5-methyl-3-(trifluoromethyl)-1H-pyrazol-1-yl]ethanethione]	–	–	–	–	–	–	pest or weed control at 10 µg/mL ([1]; Plasmopara, 144 h, ** tested at l0 ppm, read-out: Percent Disease Control, Test A): 100%; pest or weed control at 10 µg/mL [2, 6]: 100%; pest or weed control at 10 µg/mL [3, 7]: 99%
COc1ccccc1C1CC(c2csc(C3CCN(C(=O)Cn4nc(C(F)(F)F)cc4C)CC3)n2)=NO1 (stereo not shown) [Compound 131]	100	100	99	–	–	–	–
Cc1cc(C(F)(F)F)nn1CC(=O)N1CCC(c2nc(C3=NOC(C)(c4cc(Cl)sc4Cl)C3)cs2)CC1 (stereo not shown) [Compound 132]	85	100	91	–	–	–	–

Structure (SMILES)	Percent Disease Control, Test A ([1]; * tested at 40 ppm) [%]	Percent Disease Control, Test B ([2]; * tested at 40 ppm) [%]	Percent Disease Control, Test C ([3]; * tested at 40 ppm) [%]	Percent Disease Control, Test A [1, 4] [%]	Percent Disease Control, Test B [2, 4] [%]	Percent Disease Control, Test C [3, 4] [%]	further results
Cc1ccc(C)c(C2CC(c3csc(C4CCN(C(=O)Cn5nc(C(F)(F)F)cc5C)CC4)n3)=NO2)c1 (stereo not shown) [Compound 133]	100	100	99	–	–	–	–
COC(=O)c1ccc(C2CC(c3csc(C4CCN(C(=O)Cn5nc(C(F)(F)F)cc5C)CC4)n3)=NO2)cc1 (stereo not shown) [Compound 134]	90	100	66	–	–	–	–
Cc1ccc(C2CC(c3csc(C4CCN(C(=O)Cn5nc(C(F)(F)F)cc5C)CC4)n3)=NO2)c(C)c1 (stereo not shown) [Compound 136]	99	100	99	–	–	–	–
Cc1cc(C(F)(F)F)nn1CC(=O)N1CCC(c2nc(C3=NOC4(CCOc5ccccc54)C3)cs2)CC1 (stereo not shown) [Compound 137, 1-[4-[4-(2,3-dihydrospiro[4H-1-benzopyran-4,5′(4′H)-isoxazol]-3′-yl)-2-thiazolyl]-1-piperidinyl]-2-[5-methyl-3-(trifluoromethyl)-1H-pyrazol-1-yl]ethanone]	–	–	–	–	–	–	pest or weed control at 40 ppm [1, 5]: 100%; pest or weed control at 40 ppm [2, 6]: 100%; pest or weed control at 40 ppm [3, 7]: 99%
Cc1cc(C(F)(F)F)nn1CC(=O)N1CCC(c2nc(C3=NOC4(CCC(C(C)(C)C)CC4)C3)cs2)CC1 (stereo not shown) [Compound 138]	93	100	99	–	–	–	–
Cc1cc(C(F)(F)F)nn1CC(=O)N1CCC(c2nc(C3=NOC(c4ccccc4)(c4ccccc4)C3)cs2)CC1 [Compound 139]	87	98	87	–	–	–	–
COc1ccccc1C1(C)CC(c2csc(C3CCN(C(=O)Cn4nc(C(F)(F)F)cc4C)CC3)n2)=NO1 (stereo not shown) [Compound 140]	98	100	57	–	–	–	–
COCC1(c2ccccc2)CC(c2csc(C3CCN(C(=O)Cn4nc(C(F)(F)F)cc4C)CC3)n2)=NO1 (stereo not shown) [Compound 141]	99	100	99	–	–	–	–
CSCC1(c2ccccc2)CC(c2csc(C3CCN(C(=O)Cn4nc(C(F)(F)F)cc4C)CC3)n2)=NO1 (stereo not shown) [Compound 142]	97	100	98	–	–	–	–
Cc1cc(C(F)(F)F)nn1CC(=O)N1CCC(c2nc(C3=NOC(CS(C)(=O)=O)(c4ccccc4)C3)cs2)CC1 (stereo not shown) [Compound 143]	99	100	99	–	–	–	–
Cc1cc(C(F)(F)F)nn1CC(=O)N1CCC(c2nc(C3=NOC(C[S+](C)[O-])(c4ccccc4)C3)cs2)CC1 (stereo not shown) [Compound 144]	99	100	93	–	–	–	–
Cc1cc(C(F)(F)F)nn1CC(=O)N1CCC(c2nc(C3=CC(C)(c4ccccc4)OC3=O)cs2)CC1 (stereo not shown) [Compound 145]	–	–	–	17	58	0	–
Cc1c(C2(C)CC(c3csc(C4CCN(C(=O)Cn5nc(C(F)(F)F)cc5C)CC4)n3)=NO2)sc2cccc(Cl)c12 (stereo not shown) [Compound 146]	–	–	–	83	100	53	–
Cc1cc(C(F)(F)F)nn1CC(=O)N1CCC(c2nc(C3=NOC(C)(c4csc5ccccc45)C3)cs2)CC1 (stereo not shown) [Compound 147]	100	100	95	–	–	–	–
Cc1cc(C(F)(F)F)nn1CC(=O)N1CCC(c2nc(C3=NOC(c4ccsc4)C3)cs2)CC1 (stereo not shown) [Compound 148]	–	–	–	–	–	–	Percent Disease Control, Test A ([1]; ** tested at l0 ppm): 100%; Percent Disease Control, Test B ([2]; ** tested at l0 ppm): 100%; Percent Disease Control, Test C ([3]; ** tested at l0 ppm): 99%
Cc1cc(C(F)(F)F)nn1CC(=O)N1CCN(c2nc(C3=NOC(c4ccccc4)C3)cs2)CC1 (stereo not shown) [Compound 154, 1-[4-[4-(4,5-dihydro-5-phenyl-3-isoxazolyl)-2-thiazolyl]-1-piperazinyl]-2-[5-methyl-3-(trifluoromethyl)-1H-pyrazol-1-yl]ethanone]	–	–	–	–	–	–	pest or weed control at 40 ppm [1, 5]: 90%; pest or weed control at 40 ppm [2, 6]: 100%; pest or weed control at 40 ppm [3, 7]: 99%
CC(=O)OCC1(c2ccccc2)CC(c2csc(C3CCN(C(=O)Cn4nc(C(F)(F)F)cc4C)CC3)n2)=NO1 (stereo not shown) [Compound 156]	100	100	99	–	–	–	–
